The results in this text go back to patent US11548870B2, “Compounds useful as inhibitors of helios protein” (Bristol-Myers Squibb Company, priority 2019, dated 2023).

One assay concerns the target T1, Helios (Homo sapiens, UniProt Q96SW2+Q9UKS7).
T1 construct: fluorescently labelled antibodies against Helios and Ikaros; endogenous in cells; host or cells: Jurkat cells
As to the kind of experiment: Helios Cellular Degradation Assay (flow cytometry, Helios-PE antibody staining, 72 h). The format is cell-based. The following applies: for Dmax: Jurkat, read-out: Helios Dmax. On the procedure:
(§1) Helios Cellular Degradation Assay
(§2) Jurkat cells were plated at 80,000 cells/well in 40 μL RPMI+10% FBS in a 384 well cell culture plate prior to using acoustic dispensing technology for adding compound of interest. Cell cultures were incubated for 72 h at 37° C. and 5% CO2. In order to facilitate analysis, cell cultures were spun down at 200 rpm for 5 min and the supernatant was discarded. After shaking the plate to dislodge the cell pellet, cells were resuspended in 50 μL of Fixation Buffer (eBioScience FoxP3 buffer set 0000) for 60 min at room temperature. After centrifuging and discarding the supernatant, cells were permeabilized with 50 μL of Permeabilization buffer (eBioScience FoxP3 buffer set 00-5523-00) for 10 min at room temperature. Following permeabilization, cells were spun down and the supernatant was replaced with 20 μL fluorescently labelled antibodies against Helios and Ikaros or corresponding Isotype controls in 1× Permeabilization buffer (Ikaros-Alexa488 [Biolegend, Cat #368408, 1:50], Helios-PE [CST, Cat #29360, 1:50]) and staining reactions were incubated for 1 h at room temperature; protected from light. Subsequently, 30 μL of 1× Permeabilization buffer was added prior to centrifuging the cells and discarding the supernatant. Stained cells were resuspended in 25 μL of flow cytometry staining buffer (PBS+0.2% BSA) and analyzed using an Intellicyt Ique Plus flow cytometer.
as §2, with “00-5523-00)” for “0000)”
In general terms: In flow cytometry, cells or beads pass a laser one at a time.

The next assay addresses T2, Ikaros (Homo sapiens, UniProt Q13422).
T2 construct: fluorescently labelled antibodies against Helios and Ikaros; endogenous in cells; host or cells: Jurkat cells
As to the kind of experiment: Helios Cellular Degradation Assay, Ikaros readout (flow cytometry, Ikaros-Alexa488 antibody staining, 72 h). The format is cell-based. As to conditions: Jurkat cells, 72 h incubation, flow cytometry; for Dmax: Jurkat, read-out: Ikaros Dmax. On the procedure: as §1, §2
as §2, with “00-5523-00)” for “0000)”

[1] abbreviates: Jurkat cells, 72 h incubation, flow cytometry.

Where “and” joins values, the source holds several entries; their conditions need not be identical. Equal values may be shown once. Read-outs that look alike come from different tables or passages of the source.

T1 sequence (Q9UKS7 whole entry): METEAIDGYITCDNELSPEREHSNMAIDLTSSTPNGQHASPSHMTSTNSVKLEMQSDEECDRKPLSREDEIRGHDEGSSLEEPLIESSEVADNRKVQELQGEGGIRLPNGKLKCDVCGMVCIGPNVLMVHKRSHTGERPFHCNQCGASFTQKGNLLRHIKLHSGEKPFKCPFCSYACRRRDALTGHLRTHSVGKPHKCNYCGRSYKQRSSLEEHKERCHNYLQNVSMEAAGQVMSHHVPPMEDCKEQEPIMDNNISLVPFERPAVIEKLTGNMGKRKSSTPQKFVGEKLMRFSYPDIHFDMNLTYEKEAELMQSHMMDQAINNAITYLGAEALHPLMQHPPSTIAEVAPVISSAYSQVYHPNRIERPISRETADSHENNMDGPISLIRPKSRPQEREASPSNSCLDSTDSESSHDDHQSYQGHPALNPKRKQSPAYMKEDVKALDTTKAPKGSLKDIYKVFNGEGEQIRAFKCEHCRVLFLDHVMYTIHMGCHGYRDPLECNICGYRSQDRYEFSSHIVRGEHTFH
T1 sequence (Q96SW2 whole entry): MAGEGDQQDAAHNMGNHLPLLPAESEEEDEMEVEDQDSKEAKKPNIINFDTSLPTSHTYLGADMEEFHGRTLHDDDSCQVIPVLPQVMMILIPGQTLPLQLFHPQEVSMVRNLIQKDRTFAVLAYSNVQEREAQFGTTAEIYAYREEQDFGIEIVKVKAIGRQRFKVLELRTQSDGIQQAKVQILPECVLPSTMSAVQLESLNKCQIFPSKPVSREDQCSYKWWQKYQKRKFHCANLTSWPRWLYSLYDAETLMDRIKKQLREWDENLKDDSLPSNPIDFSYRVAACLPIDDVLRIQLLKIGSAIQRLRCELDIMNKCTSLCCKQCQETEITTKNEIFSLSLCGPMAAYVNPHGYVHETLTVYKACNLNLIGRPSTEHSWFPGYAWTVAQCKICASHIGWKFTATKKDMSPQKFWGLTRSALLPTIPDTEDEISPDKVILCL
T1 sequence (Q16531 whole entry partner): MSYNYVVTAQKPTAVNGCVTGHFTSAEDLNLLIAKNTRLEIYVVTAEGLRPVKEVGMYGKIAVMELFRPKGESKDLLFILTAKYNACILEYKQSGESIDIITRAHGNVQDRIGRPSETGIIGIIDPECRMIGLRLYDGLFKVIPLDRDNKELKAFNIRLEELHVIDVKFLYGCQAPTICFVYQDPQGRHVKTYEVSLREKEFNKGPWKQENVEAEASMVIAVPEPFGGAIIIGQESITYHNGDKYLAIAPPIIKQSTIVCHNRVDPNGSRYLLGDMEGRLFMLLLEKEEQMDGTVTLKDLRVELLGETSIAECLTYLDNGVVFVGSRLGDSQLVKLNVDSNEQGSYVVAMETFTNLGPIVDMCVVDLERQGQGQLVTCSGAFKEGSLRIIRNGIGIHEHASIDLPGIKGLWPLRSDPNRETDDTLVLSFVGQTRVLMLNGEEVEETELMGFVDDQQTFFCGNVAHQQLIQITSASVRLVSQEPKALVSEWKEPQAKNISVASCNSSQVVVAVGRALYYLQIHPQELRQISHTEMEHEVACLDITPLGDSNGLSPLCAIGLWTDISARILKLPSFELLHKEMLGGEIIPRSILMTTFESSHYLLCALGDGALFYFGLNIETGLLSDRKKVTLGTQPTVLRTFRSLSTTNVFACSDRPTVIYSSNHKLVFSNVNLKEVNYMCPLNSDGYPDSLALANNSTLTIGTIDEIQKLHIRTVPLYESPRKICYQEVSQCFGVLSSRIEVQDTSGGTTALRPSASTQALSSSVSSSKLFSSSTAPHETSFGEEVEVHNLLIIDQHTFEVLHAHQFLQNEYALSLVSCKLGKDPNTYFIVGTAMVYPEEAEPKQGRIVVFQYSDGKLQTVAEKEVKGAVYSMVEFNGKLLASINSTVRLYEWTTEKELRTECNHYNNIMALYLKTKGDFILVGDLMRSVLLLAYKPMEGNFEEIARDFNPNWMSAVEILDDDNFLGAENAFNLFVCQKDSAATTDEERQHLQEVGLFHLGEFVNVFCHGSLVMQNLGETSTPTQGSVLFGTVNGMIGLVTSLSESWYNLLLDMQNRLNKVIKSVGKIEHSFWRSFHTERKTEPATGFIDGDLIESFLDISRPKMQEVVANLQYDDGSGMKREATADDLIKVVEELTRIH
T2 sequence (Q96SW2 whole entry partner): as the sequence (Q96SW2 whole entry) above
T2 sequence (Q16531 whole entry partner): as the sequence (Q16531 whole entry partner) above
T2 sequence (Q13422 whole entry): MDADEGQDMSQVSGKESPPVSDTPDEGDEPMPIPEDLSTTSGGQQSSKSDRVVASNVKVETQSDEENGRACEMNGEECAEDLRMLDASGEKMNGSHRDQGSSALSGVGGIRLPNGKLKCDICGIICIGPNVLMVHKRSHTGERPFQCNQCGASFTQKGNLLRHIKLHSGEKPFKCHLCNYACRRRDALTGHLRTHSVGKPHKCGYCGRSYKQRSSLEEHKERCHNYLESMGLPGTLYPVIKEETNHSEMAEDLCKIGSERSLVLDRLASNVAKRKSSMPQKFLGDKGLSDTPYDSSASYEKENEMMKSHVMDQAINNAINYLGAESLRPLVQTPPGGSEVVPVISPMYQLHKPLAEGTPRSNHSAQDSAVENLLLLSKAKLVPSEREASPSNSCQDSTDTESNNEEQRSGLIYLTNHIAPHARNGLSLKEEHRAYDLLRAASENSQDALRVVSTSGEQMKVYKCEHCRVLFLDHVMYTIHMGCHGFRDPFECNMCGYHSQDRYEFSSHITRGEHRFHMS

One may read the DC50 as the concentration giving 50% degradation. Turning to “3-(1-oxo-5-(4-((4-(pyridin-2-yl)piperidin-1-yl)methyl)pyridin-2-yl)isoindolin-2-yl)piperidine-2,6-dione [Example 15]”, at Helios (setting [1]), the half-maximal degradation concentration (DC50) was over 10 µM and the “Helios Dmax” value came out at 5%. On Ikaros, the DC50 was over 10 µM and the “Ikaros Dmax” value came out at 8%.
As for “3-(1-oxo-5-(4-((4-(pyrimidin-2-yl) piperidin-1-yl)methyl)pyridin-2-yl)isoindolin-2-yl)piperidine-2,6-dione [Example 18]”, on Helios (setting [1]), the DC50 is over 10 µM and the “Helios Dmax” value is recorded as 21%. At Ikaros, the DC50 was over 10 µM and the “Ikaros Dmax” value came to 19%.
Consider “3-(5-(4-(((cyclobutylmethyl)(methyl)amino)methyl)pyridin-2-yl)-1-oxoisoindolin-2-yl)piperidine-2,6-dione [Example 178]”, for which, on Helios (setting [1]), the DC50 was determined as 0.131 µM and the “Helios Dmax” value was 82%. Also, at Ikaros, the half-maximal degradation concentration (DC50) was over 10 µM and the “Ikaros Dmax” value stood at 15%.
Regarding `O=C1CCC(N2Cc3cc(-c4cc(CN5CCC5c5ccccc5)ccn4)ccc3C2=O)C(=O)N1` (single isomer, unassigned) [Example 204, 3-(1-oxo-5-(4-((2-phenylazetidin-1-yl)methyl)pyridin-2-yl)isoindolin-2-yl)piperidine-2,6-dione], on Helios (setting [1]), the DC50 is over 10 µM; the “Helios Dmax” value is 2.42% and 2.4%. The DC50 on Ikaros is over 10 µM.
With `O=C1CCC(N2Cc3cc(-c4cc(CN5CCC5c5ccccc5)ccn4)ccc3C2=O)C(=O)N1` (single isomer, unassigned) [Example 205, 3-(1-oxo-5-(4-((2-phenylazetidin-1-yl)methyl)pyridin-2-yl)isoindolin-2-yl)piperidine-2,6-dione], the DC50 on Helios (setting [1]) and on Ikaros was over 10 µM throughout. The “Ikaros Dmax” value on Ikaros is 8.15% and 6%.
The term Dmax denotes the largest share of the target that was removed. Consider `CN(C)Cc1ccnc(-c2ccc3c(c2)CN(C2CCC(=O)NC2=O)C3=O)c1` (stereo not shown) [Example 1, 3-(5-{4-[(Dimethylamino)methyl]pyridin-2-yl}-1-oxo-2,3-dihydro-1H-isoindol-2-yl) piperidine-2,6-dione], for which the DC50 was 0.025 µM on Helios (setting [1]) and over 10 µM at Ikaros. Moreover, the greatest degradation seen (Dmax) on Helios (setting [1]) is 84%; on Ikaros it was 9%.
On the same counts, the results for `O=C1CCC(N2Cc3cc(-c4cc(CNCc5ccccc5)ccn4)ccc3C2=O)C(=O)N1` (stereo not shown) [Example 2, 3-(5-(4-((benzylamino)methyl)pyridin-2-yl)-1-oxoisoindolin-2-yl)piperidine-2,6-dione] are 0.011 µM, over 10 µM, 92% and 16%.
With `CCCN(C)Cc1ccnc(-c2ccc3c(c2)CN(C2CCC(=O)NC2=O)C3=O)c1` (stereo not shown) [Example 3, 3-(5-(4-((methyl(propyl)amino)methyl)pyridin-2-yl)-1-oxoisoindolin-2-yl)piperidine-2,6-dione], at Helios (setting [1]), the DC50 amounted to 0.038 µM and the Dmax came out at 87%. Besides, at Ikaros, the DC50 is over 10 µM and the greatest degradation seen (Dmax) stood at 3%.
For `CCN(C)Cc1ccnc(-c2ccc3c(c2)CN(C2CCC(=O)NC2=O)C3=O)c1` (stereo not shown) [Example 4, 3-(5-(4-((ethyl(methyl)amino)methyl)pyridin-2-yl)-1-oxoisoindolin-2-yl)piperidine-2,6-dione] the same measures were 0.096 µM, 84%, over 10 µM and 8%.
Take `CCN(C)Cc1ccnc(-c2ccc3c(c2)CN(C2CCC(=O)NC2=O)C3=O)c1` (stereo not shown) [Example 5]: at Helios (setting [1]), the half-maximal degradation concentration (DC50) was determined as 0.044 µM and the “Helios Dmax” value was found to be 90%. Also, on Ikaros, the DC50 was over 10 µM and the “Ikaros Dmax” value amounted to 5%.
For `CCN(C)Cc1ccnc(-c2ccc3c(c2)CN(C2CCC(=O)NC2=O)C3=O)c1` (stereo not shown) [Example 6] the same measures were 0.028 µM, 86%, over 10 µM and 6%.
For `COCCN(C)Cc1ccnc(-c2ccc3c(c2)CN(C2CCC(=O)NC2=O)C3=O)c1` (stereo not shown) [Example 7, 3-(5-(4-(((2-methoxyethyl)(methyl)amino)methyl)pyridin-2-yl)-1-oxoisoindolin-2-yl)piperidine-2,6-dione], at Helios (setting [1]), the DC50 is 0.138 µM and the Dmax stood at 85%. For the same molecule, at Ikaros, the DC50 is over 10 µM and the Dmax turned out to be 20%.
With `O=C1CCC(N2Cc3cc(-c4cc(CN5CCCC5)ccn4)ccc3C2=O)C(=O)N1` (stereo not shown) [Example 8, 3-(1-oxo-5-(4-(pyrrolidin-1-ylmethyl)pyridin-2-yl)isoindolin-2-yl)piperidine-2,6-dione], at Helios (setting [1]), the DC50 came to 0.026 µM and the maximal degradation (Dmax) is 85%. Further, at Ikaros, the DC50 is over 10 µM and the Dmax amounted to 18%.
On the same counts, the results for `CCCCN(C)Cc1ccnc(-c2ccc3c(c2)CN(C2CCC(=O)NC2=O)C3=O)c1` (stereo not shown) [Example 9, 3-(5-(4-((butyl(methyl)amino)methyl)pyridin-2-yl)-1-oxoisoindolin-2-yl)piperidine-2,6-dione] are 0.167 µM, 87%, over 10 µM and 4%.
On the same counts, the results for `CCCN(Cc1ccnc(-c2ccc3c(c2)CN(C2CCC(=O)NC2=O)C3=O)c1)CC1CC1` (stereo not shown) [Example 10, 3-(5-(4-(((cyclopropylmethyl)(propyl)amino)methyl)pyridin-2-yl)-1-oxoisoindolin-2-yl)piperidine-2,6-dione] are 0.183 µM, 67%, over 10 µM and 9%.
In the case of `O=C1CCC(N2Cc3cc(-c4cc(CN5CCC(n6c(=O)[nH]c7ccccc76)CC5)ccn4)ccc3C2=O)C(=O)N1` (stereo not shown) [Example 11, 3-(1-oxo-5-(4-((4-(2-oxo-2,3-dihydro-1H-benzo[d]imidazol-1-yl)piperidin-1-yl)methyl)pyridin-2-yl)isoindolin-2-yl)piperidine-2,6-dione], the DC50 on Helios (setting [1]) was 0.573 µM; at Ikaros, over 10 µM. Moreover, the values for the Dmax on Helios and at Ikaros were 59% and 7%, respectively.
In the case of `O=C1CCC(N2Cc3cc(-c4cc(CN5CCN(Cc6ccc7c(c6)OCO7)CC5)ccn4)ccc3C2=O)C(=O)N1` (stereo not shown) [Example 12, 3-(5-(4-((4-(benzo[d][1,3]dioxol-5-ylmethyl)piperazin-1-yl)methyl)pyridin-2-yl)-1-oxoisoindolin-2-yl)piperidine-2,6-dione], at Helios (setting [1]), the half-maximal degradation concentration (DC50) was over 10 µM and the Dmax is 37%. Moreover, on Ikaros, the DC50 was over 10 µM and the Dmax was 16%.
Take `CCN(CC)C(=O)C1CCCN(Cc2ccnc(-c3ccc4c(c3)CN(C3CCC(=O)NC3=O)C4=O)c2)C1` (stereo not shown) [Example 13, 1-((2-(2-(2,6-dioxopiperidin-3-yl)-1-oxoisoindolin-5-yl)pyridin-4-yl)methyl)-N,N-diethylpiperidine-3-carboxamide]: the DC50 is 0.2 µM on Helios (setting [1]) and over 10 µM on Ikaros. Also, the Dmax on Helios (setting [1]) came out at 67%; on Ikaros, 8%.
For `CC1CCN(Cc2ccnc(-c3ccc4c(c3)CN(C3CCC(=O)NC3=O)C4=O)c2)CC1` (stereo not shown) [Example 14, 3-(5-(4-((4-methylpiperidin-1-yl)methyl)pyridin-2-yl)-1-oxoisoindolin-2-yl)piperidine-2,6-dione], at Helios (setting [1]), the DC50 came out at 0.036 µM and the Dmax came to 80%. Moreover, on Ikaros, the 50% degradation concentration (DC50) was over 10 µM and the Dmax was 16%.
On the same counts, the results for `CN(CCc1ccccn1)Cc1ccnc(-c2ccc3c(c2)CN(C2CCC(=O)NC2=O)C3=O)c1` (stereo not shown) [Example 16, 3-(5-(4-((methyl(2-(pyridin-2-yl)ethyl)amino)methyl)pyridin-2-yl)-1-oxoisoindolin-2-yl) piperidine-2,6-dione] are 0.788 µM, 63%, over 10 µM and 12%.
Turning to `O=C1CCC(N2Cc3cc(-c4cc(CN5CCC(N6CCCCC6)CC5)ccn4)ccc3C2=O)C(=O)N1` (stereo not shown) [Example 17, 3-(5-(4-([1,4′-bipiperidin]-1′-ylmethyl)pyridin-2-yl)-1-oxoisoindolin-2-yl)piperidine-2,6-dione], at Helios (setting [1]), the DC50 was over 10 µM and the Dmax amounted to 16%. At Ikaros, the DC50 is over 10 µM and the Dmax was 11%.
